Values of other authors, collected in patent publication US10813877B2, “Oral care products and methods” (MGE HOLDINGS LLC, priority 2016, dated 2020).

Test system: cells
Conditions: ex vivo

Question: For `[H]/N=C(\N/C(=N/[H])NCCCCCCNC(=N)NC(=N)Nc1ccc(Cl)cc1)Nc1ccc(Cl)cc1` [chlorhexidine], which “cytotoxic effect on cells” value is on record?
Answer: cytotoxic effect
